Test results taken from BindingDB's records for doi:10.1021/jm960509y (Abbott Laboratories, 1997).
One block for each molecule: values may come before it. *1 amine or outer side, *2 acyl side, *3 side chain or, on linkers, in order; H or OH if unused. Where a SMILES comes first, the peptide text is derived from it. Side-chain parts run from the residue outwards. [ ]: non-standard residue; d: D form. The star is where a group is joined. ξ: configuration not given here. NH(4-MeO-phenyl) = COc1ccc(N*)cc1; ξW = NC(Cc1c[nH]c2ccccc12)C(=O)O; pNA = O=[N+]([O-])c1ccc(N*)cc1; X2 = O=[N+]([O-])c1cccc(N*)c1; NH(3-MeOPh) = COc1cccc(N*)c1; 3Abz = Nc1cccc(C(=O)O)c1; ξF = NC(Cc1ccccc1)C(=O)O; X1 = CC(=O)c1ccc(N*)cc1; ξD = NC(CC(=O)O)C(=O)O; Boc = CC(C)(C)OC(=O)*; CO = O=C([*:1])[*:2]

Key:
[1] = biological target: Gastrin/cholecystokinin type B receptor (Cavia porcellus); assay: Displacement of [125I]- BH-CCK-8 from Cholecystokinin type B receptor of guinea pig cortex
[2] = biological target: Gastrin/cholecystokinin type B receptor (Cavia porcellus); assay: Inhibitory activity against Cholecystokinin type B receptor using [125I]- BH-CCK-8 as radioligand in cortex tissue of guinea pig

IC50 [1]: 1000 nM
SMILES: COC(=O)c1cccc(NC(=O)NCCCC[C@H](NC(=O)C(Cc2c[nH]c3ccccc23)NC(=O)OC(C)(C)C)C(=O)NC(CC(=O)O)C(=O)NC(Cc2ccccc2)C(N)=O)c1 (some centres not stated) (Boc-[ξW]K([CO-3Abz-OMe])[ξD][ξF]-NH2)

SMILES: COc1ccc(NC(=O)NCCCC[C@H](NC(=O)C(Cc2c[nH]c3ccccc23)NC(=O)OC(C)(C)C)C(=O)NC(CC(=O)O)C(=O)NC(Cc2ccccc2)C(N)=O)cc1 (stereo partly drawn) [3-{(S)-2-[2-tert-Butoxycarbonylamino-3-(1H-indol-3-yl)-propionylamino]-6-[3-(4-methoxy-phenyl)-ureido]-hexanoylamino}-N-(1-carbamoyl-2-phenyl-ethyl)-succinamic acid] (Boc-[ξW]K([CO-NH(4-MeO-phenyl)])[ξD][ξF]-NH2)
IC50 [1]: 750 nM

SMILES: CC(C)(C)OC(=O)N[C@@H](Cc1c[nH]c2ccccc12)C(=O)N[C@@H](CCCCNC(=O)Nc1cccc([N+](=O)[O-])c1)C(=O)N[C@@H](CC(=O)O)C(=O)N[C@@H](Cc1ccccc1)C(N)=O [3-{(S)-2-[2-tert-Butoxycarbonylamino-3-(1H-indol-3-yl)-propionylamino]-6-[3-(3-nitro-phenyl)-ureido]-hexanoylamino}-N-(1-carbamoyl-2-phenyl-ethyl)-succinamic acid] (Boc-WK([CO-X2])DF-NH2)
IC50 [1]: 1200 nM

SMILES: CSCCC(NC(=O)NC(CC(=O)O)C(=O)NC(Cc1ccccc1)C(N)=O)C(=O)NC(=O)C(Cc1c[nH]c2ccccc12)NC(=O)OC(C)(C)C (configuration not stated) [3-(3-{1-[2-tert-Butoxycarbonylamino-3-(1H-indol-3-yl)-propionylcarbamoyl]-3-methylsulfanyl-propyl}-ureido)-N-(1-carbamoyl-2-phenyl-ethyl)-succinamic acid]
IC50 [2]: 25 nM

SMILES: CC(=O)c1ccc(NC(=O)NCCCC[C@H](NC(=O)C(Cc2c[nH]c3ccccc23)NC(=O)OC(C)(C)C)C(=O)NC(CC(=O)O)C(=O)NC(Cc2ccccc2)C(N)=O)cc1 (stereo partly drawn) [3-{(S)-6-[3-(4-Acetyl-phenyl)-ureido]-2-[2-tert-butoxycarbonylamino-3-(1H-indol-3-yl)-propionylamino]-hexanoylamino}-N-(1-carbamoyl-2-phenyl-ethyl)-succinamic acid] (Boc-[ξW]K([CO-X1])[ξD][ξF]-NH2)
IC50 [1]: 12 nM

SMILES: CC(C)(C)OC(=O)NC(Cc1c[nH]c2ccccc12)C(=O)N[C@@H](CCCCNC(=O)Nc1ccc([N+](=O)[O-])cc1)C(=O)NC(CC(=O)O)C(=O)NC(Cc1ccccc1)C(N)=O (stereo partly drawn) [3-{(S)-2-[2-tert-Butoxycarbonylamino-3-(1H-indol-3-yl)-propionylamino]-6-[3-(4-nitro-phenyl)-ureido]-hexanoylamino}-N-(1-carbamoyl-2-phenyl-ethyl)-succinamic acid] (Boc-[ξW]K([CO-pNA])[ξD][ξF]-NH2)
IC50 [1]: 31 nM

SMILES: COc1cccc(NC(=O)NCCCC[C@H](NC(=O)C(Cc2c[nH]c3ccccc23)NC(=O)OC(C)(C)C)C(=O)NC(CC(=O)O)C(=O)NC(Cc2ccccc2)C(N)=O)c1 (stereo partly drawn) [3-{(S)-2-[2-tert-Butoxycarbonylamino-3-(1H-indol-3-yl)-propionylamino]-6-[3-(3-methoxy-phenyl)-ureido]-hexanoylamino}-N-(1-carbamoyl-2-phenyl-ethyl)-succinamic acid] (Boc-[ξW]K([CO-NH(3-MeOPh)])[ξD][ξF]-NH2)
IC50 [1]: 1400 nM
